What was measured:
Experiment in all cases: relative viability (nuclei count vs DMSO), 5 days (fraction); higher = more cells survive
NCI-H358 = tested on: NCI-H358
In short: (§1)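 The day after seeding in 1536-well plates, lung cancer cell lines were treated by pin tool with a single drug, or with a fixed anchor-drug dose together with five library-drug doses (not always all listed) in √10 steps. After 5 days, a combined fix-and-stain solution (final 0.05% Triton X-100, 1% formaldehyde, 1 ug/ml Hoechst) was added. Nuclei counted on 4× images gave relative viability as treated counts over vehicle counts, reported as the median of duplicate plates.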

NCI-H1792 = tested on: NCI-H1792
In short: as §1

NCI-H1755 = tested on: NCI-H1755
In short: as §1

COR-L23 = tested on: COR-L23
In short: as §1

PC-14 = tested on: PC-14
In short: as §1

LC-2-ad = tested on: LC-2-ad
In short: as §1

NCI-H2023 = tested on: NCI-H2023
In short: as §1

NCI-H1915 = tested on: NCI-H1915
In short: as §1

NCI-H1395 = tested on: NCI-H1395
In short: as §1

NCI-H650 = tested on: NCI-H650
In short: as §1

NCI-H2342 = tested on: NCI-H2342
In short: as §1

HCC-366 = tested on: HCC-366
In short: as §1

EMC-BAC-2 = tested on: EMC-BAC-2
In short: as §1

HCC-15 = tested on: HCC-15
In short: as §1

NCI-H1437 = tested on: NCI-H1437
In short: as §1

SK-MES-1 = tested on: SK-MES-1
In short: as §1

NCI-H23 = tested on: NCI-H23
In short: as §1

NCI-H2009 = tested on: NCI-H2009
In short: as §1

COR-L 105 = tested on: COR-L 105
In short: as §1

NCI-H2347 = tested on: NCI-H2347
In short: as §1

201T = tested on: 201T
In short: as §1

NCI-H1793 = tested on: NCI-H1793
In short: as §1

In the case of `Cc1csc(=NC2CCCCC2)n1/N=C/c1ccc(O)c(O)c1O` [MIM1] + CC(=O)c1c(C)c2cnc(Nc3ccc(N4CCNCC4)cn3)nc2n(C2CCCC2)c1=O [Palbociclib] (partner 0.5 µM), the relative viability (NCI-H358; first compound 0.2 µM) is reported as 0.145, the relative viability (NCI-H358; first compound 0.6325 µM) is reported as 0.153 and the relative viability (NCI-H358; first compound 2 µM) is reported as 0.122. It also gave a relative viability (NCI-H358; first compound 6.325 µM) of 0.118, a relative viability (NCI-H358; first compound 20 µM) of 0.128 and a relative viability (NCI-H1792; first compound 0.2 µM) of 0.659. For the same molecule, the relative viability (NCI-H1792; first compound 0.6325 µM) was 0.622, the relative viability (NCI-H1792; first compound 2 µM) was 0.644 and the relative viability (NCI-H1792; first compound 6.325 µM) was 0.475. For the same molecule, the relative viability (NCI-H1792; first compound 20 µM) was 0.56, the relative viability (NCI-H1755; first compound 0.2 µM) was 0.432 and the relative viability (NCI-H1755; first compound 0.6325 µM) was 0.453. For the same molecule, the relative viability (NCI-H1755; first compound 2 µM) was 0.431, the relative viability (NCI-H1755; first compound 6.325 µM) was 0.419 and the relative viability (NCI-H1755; first compound 20 µM) was 0.306. The relative viability (COR-L23; first compound 0.2 µM) was 0.301, the relative viability (COR-L23; first compound 0.6325 µM) was 0.328 and the relative viability (COR-L23; first compound 2 µM) was 0.258. For the same molecule, the relative viability (COR-L23; first compound 6.325 µM) was 0.18, the relative viability (COR-L23; first compound 20 µM) was 0.138 and the relative viability (PC-14; first compound 0.2 µM) was 0.475. For the same molecule, the relative viability (PC-14; first compound 0.6325 µM) was 0.554, the relative viability (PC-14; first compound 2 µM) was 0.464 and the relative viability (PC-14; first compound 6.325 µM) was 0.454. It also gave a relative viability (PC-14; first compound 20 µM) of 0.145, a relative viability (LC-2-ad; first compound 0.2 µM) of 0.463 and a relative viability (LC-2-ad; first compound 0.6325 µM) of 0.471. For the same molecule, the relative viability (LC-2-ad; first compound 2 µM) was 0.502, the relative viability (LC-2-ad; first compound 6.325 µM) was 0.289 and the relative viability (LC-2-ad; first compound 20 µM) was 0.182. For the same molecule, the relative viability (NCI-H2023; first compound 0.2 µM) was 0.393, the relative viability (NCI-H2023; first compound 0.6325 µM) was 0.387 and the relative viability (NCI-H2023; first compound 2 µM) was 0.391. It also gave a relative viability (NCI-H2023; first compound 6.325 µM) of 0.194, a relative viability (NCI-H2023; first compound 20 µM) of 0.0614 and a relative viability (NCI-H1915; first compound 0.2 µM) of 0.527. It also gave a relative viability (NCI-H1915; first compound 0.6325 µM) of 0.529, a relative viability (NCI-H1915; first compound 2 µM) of 0.497 and a relative viability (NCI-H1915; first compound 6.325 µM) of 0.395. The relative viability (NCI-H1915; first compound 20 µM) was 0.181, the relative viability (NCI-H1395; first compound 0.2 µM) was 0.583 and the relative viability (NCI-H1395; first compound 0.6325 µM) was 0.6. It also gave a relative viability (NCI-H1395; first compound 2 µM) of 0.596, a relative viability (NCI-H1395; first compound 6.325 µM) of 0.579 and a relative viability (NCI-H1395; first compound 20 µM) of 0.406. It also gave a relative viability (NCI-H650; first compound 0.2 µM) of 0.372, a relative viability (NCI-H650; first compound 0.6325 µM) of 0.359 and a relative viability (NCI-H650; first compound 2 µM) of 0.317. It also gave a relative viability (NCI-H650; first compound 6.325 µM) of 0.366, a relative viability (NCI-H650; first compound 20 µM) of 0.159 and a relative viability (NCI-H2342; first compound 0.2 µM) of 0.525. The relative viability (NCI-H2342; first compound 0.6325 µM) was 0.543, the relative viability (NCI-H2342; first compound 2 µM) was 0.573 and the relative viability (NCI-H2342; first compound 6.325 µM) was 0.515. For the same molecule, the relative viability (NCI-H2342; first compound 20 µM) was 0.57, the relative viability (HCC-366; first compound 0.2 µM) was 0.384 and the relative viability (HCC-366; first compound 2 µM) was 0.236. For the same molecule, the relative viability (HCC-366; first compound 6.325 µM) was 0.127, the relative viability (HCC-366; first compound 20 µM) was 0.0225 and the relative viability (EMC-BAC-2; first compound 0.2 µM) was 0.543. For the same molecule, the relative viability (EMC-BAC-2; first compound 0.6325 µM) was 0.542, the relative viability (EMC-BAC-2; first compound 2 µM) was 0.476 and the relative viability (EMC-BAC-2; first compound 6.325 µM) was 0.492. For the same molecule, the relative viability (EMC-BAC-2; first compound 20 µM) was 0.244, the relative viability (HCC-15; first compound 0.2 µM) was 0.763 and the relative viability (HCC-15; first compound 0.6325 µM) was 0.709. For the same molecule, the relative viability (HCC-15; first compound 2 µM) was 0.763, the relative viability (HCC-15; first compound 6.325 µM) was 0.433 and the relative viability (HCC-15; first compound 20 µM) was 0.121. The relative viability (NCI-H1437; first compound 0.2 µM) was 0.305, the relative viability (NCI-H1437; first compound 0.6325 µM) was 0.35 and the relative viability (NCI-H1437; first compound 2 µM) was 0.312. For the same molecule, the relative viability (NCI-H1437; first compound 6.325 µM) was 0.232, the relative viability (NCI-H1437; first compound 20 µM) was 0.149 and the relative viability (SK-MES-1; first compound 0.2 µM) was 0.286. For the same molecule, the relative viability (SK-MES-1; first compound 0.6325 µM) was 0.327, the relative viability (SK-MES-1; first compound 2 µM) was 0.282 and the relative viability (SK-MES-1; first compound 6.325 µM) was 0.259. For the same molecule, the relative viability (SK-MES-1; first compound 20 µM) was 0.174, the relative viability (NCI-H23; first compound 0.2 µM) was 0.518 and the relative viability (NCI-H23; first compound 0.6325 µM) was 0.51. The relative viability (NCI-H23; first compound 2 µM) was 0.413, the relative viability (NCI-H23; first compound 6.325 µM) was 0.19 and the relative viability (NCI-H23; first compound 20 µM) was 0.194. It also gave a relative viability (NCI-H2009; first compound 0.2 µM) of 0.288, a relative viability (NCI-H2009; first compound 0.6325 µM) of 0.266 and a relative viability (NCI-H2009; first compound 2 µM) of 0.331. For the same molecule, the relative viability (NCI-H2009; first compound 6.325 µM) was 0.167, the relative viability (NCI-H2009; first compound 20 µM) was 0.122 and the relative viability (COR-L 105; first compound 0.2 µM) was 0.472. It also gave a relative viability (COR-L 105; first compound 0.6325 µM) of 0.435, a relative viability (COR-L 105; first compound 2 µM) of 0.396 and a relative viability (COR-L 105; first compound 6.325 µM) of 0.396. It also gave a relative viability (COR-L 105; first compound 20 µM) of 0.323, a relative viability (NCI-H2347; first compound 0.2 µM) of 0.408 and a relative viability (NCI-H2347; first compound 0.6325 µM) of 0.404. For the same molecule, the relative viability (NCI-H2347; first compound 2 µM) was 0.446, the relative viability (NCI-H2347; first compound 6.325 µM) was 0.42 and the relative viability (NCI-H2347; first compound 20 µM) was 0.356. For the same molecule, the relative viability (201T; first compound 0.2 µM) was 0.358, the relative viability (201T; first compound 0.6325 µM) was 0.344 and the relative viability (201T; first compound 2 µM) was 0.36. The relative viability (201T; first compound 6.325 µM) was 0.327, the relative viability (201T; first compound 20 µM) was 0.339 and the relative viability (NCI-H1793; first compound 0.2 µM) was 0.317. It also gave a relative viability (NCI-H1793; first compound 2 µM) of 0.353, a relative viability (NCI-H1793; first compound 6.325 µM) of 0.29 and a relative viability (NCI-H1793; first compound 20 µM) of 0.293.

Reference: the supplement of paper PMC10307832
